Tests used:
IRF-3 = IRF-3 transactivation cis reporter in FRTL-5 thyrocytes; format: cell-based, rat; conditions: FRTL-5, 6 hours, 0.5 mM C-10
Description: FIG. 5. Phenylmethimazole (CIO) and Methimazole (MMI) inhibit the ability of Poly (I:C), lipopolysaccharide (LPS) and IL-1β to increase IFN-β gene expression (Top Left) and IRF-3 transactivation (Top Right) in FRTL-5 thyrocytes. (Top Left) Cells were co-transfected with IFNβ-Luc and control vector (pRLTk-Int), then treated with or without (−) Poly (I:C) (100 μg/ml), LPS (100 ng/ml), or IL-1β (10 ng/ml) in the presence of the vehicle (DMSO) alone (−), C10, or MMI for 6 hours. Data was obtained with the Dual Luciferase Assay system. (Top Right) Cells were co-transfected with Gal4 DBD/IRF-3 and Gal4-Luc then treated with nothing (−), poly (I:C), LPS, or IL-1β as in (Top Left) in the presence of DMSO or C10 for 6 hours. Data was obtained by Luciferase assay. Also shown is a graphic depiction (Bottom) of how the cis reporting system is working. Data are representative of multiple experiments.
We measured the ability of C10 to inhibit IRF-3 transactivation activity in FRTL-5 thyrocytes, using the IRF-3 cis reporter system (FIG. 5, bottom).
Plasmids for Reporter Gene Assays. Human IRF-3 was amplified from human cDNA and cloned into pCR 2.1 by the TOPO/TA (Invitrogen, Carlsbad, Calif.) cloning method, and then sequenced. IRF-3 was then excised by EcoRI digestion and subcloned into pCMV-BD (Stratagene, La Jolla, Calif.) for use in transactivation assays. […]

IRF-1 = experiment: LPS-increased IRF-1 mRNA and IRF-1 binding to MxISRE in RAW 264.7 macrophages (Northern, EMSA); format: cell-based, mouse
Description: IRF-1 is a transcription factor which is induced upon LPS stimulation of macrophages through a Stat1 dependent mechanism (Y. Ohmori, et al., J Leukoc Biol, 69:598-604 (2001)). Therefore IRF-1 provides another example of a response that may be affected by an inhibitor of LPS induced IFN-β signaling. Unlike other molecules studied thus far, IRF-1 acts as a transcription factor to directly bind to DNA to enhance transcription of other genes such as iNOS (R. Kamijo, et al., Science, 263:1612-5, (1994)). In macrophages treated with LPS, IRF-1 is required for the transcriptional control of the iNOS gene (R. Kamijo, et al., Science, 263:1612-5 (1994)). […] Typical LPS induction for each time point is observed in each LPS plus DMSO lane (FIG. 14A, lanes 2, 5, 8). […] The decrease by C10 is much greater than by MMI (FIG. 14A, lanes 6 and 9 vs 7 and 10, respectively). […] Specificity was observed upon incubation of extracts with unlabeled […] probe (FIG. 14B, lane 9). […] ID NO:23) and [NT] (469 bp) (SEQ ID NO:24); […] ID NO:25) and [NT] […] ID NO:27) and [NT] […] ID NO:29) and [NT] (586 bp) (SEQ ID NO:30). […] EMSA in RAW 264.7 cells: Nuclear extracts were prepared using NE-PER® extraction reagents (Pierce Chemical Co.; Rockford, Ill.) in the presence of a protease inhibitor cocktail (PMSF, Leupeptin, Pepstatin-A). Oligonucleotide sense strand probe sequences were as follows […] probe: [NT] […]

With `Cn1c(-c2ccccc2)cnc1S` [Compound C10, 5-Phenylmethimazole] the “IRF-3 transactivation by poly (I:C), LPS, or IL-1β” value (IRF-3) was “inhibited”, the “LPS induced IRF-1 binding to the MxISRE element (EMSA)” value (IRF-1; RAW 264.7, LPS 1 μg/mL 2 hours) was “dose dependent reduction” and the “LPS-increased IRF-1 mRNA” value (IRF-1; RAW 264.7, LPS 1 μg/mL, 2 and 3 hours, Northern) was “strong reduction”.

Source: patent US9326972B2, “Use of phenylmethimazoles, methimazole derivatives, and tautomeric cyclic thiones for the treatment of autoimmune/inflammatory diseases associated with toll-like receptor overexpression” (Ohio University, priority 2004, dated 2016)
